Experimental data reported in publication PMC5562778 (Archives of Toxicology, 2017).

Assays:
SULT = SULT mediated conversion of 7-hydroxycoumarin to 7-hydroxycoumarin sulfate, liver S9; type: in vitro ADME, human
Method: (§1) The quality of the Chinese and Caucasian liver microsomes was checked by measuring the activity of CYP1A2 and CYP2A6 by the method of Yang et al. ([2012]). The quality of Chinese and Caucasian liver S9 samples was checked by measuring the SULT activity based on the method provided by Wang et al. ([2006]). The details of the methods for the microsomal and S9 in vitro incubations and UPLC analysis for assessing the metabolic capabilities of CYP and SULT enzymes can be found in the supporting materials 1.
(§2) Before UPLC analysis, all samples were centrifuged for 5 min at 16, 000g to precipitate microsomal or cytosolic proteins. Supernatant of each sample was analyzed on UPLC using a BEH C18 (1.7 μm 2.1×50 mm) column with a guard column and a diode array detector (Acquity, Waters).

Chinese liver microsomes = assay: Microsomal conversion of estragole by Chinese liver microsomes (NADPH)
Method: (§3) The incubation mixtures contained (final concentrations) 3 mM NADPH and 1 mg/mL microsomal protein in 0.2 M Tris–HCl (pH 7.4). Incubations were performed for 10 min at substrate concentrations ranging from 25 to 1000 μM, after which the reaction was terminated by adding 25 μL ice-cold acetonitrile. Blank incubations were performed in the absence of the cofactor NADPH. All incubations were performed in triplicate. In the supporting materials 2, detailed information can be found (Table S1 can be used to keep track of detailed information).
(§4) Before UPLC analysis, all samples were centrifuged for 5 min at 16,000 g to precipitate microsomal proteins. Supernatant of each sample was analyzed on UPLC using a BEH C18 (1.7 μm, 2.1 × 50 mm) column with a guard column and a diode array detector (Acquity, Waters). […] Table S1 can be used to keep track of detailed information.
(§5) The apparent maximum velocity (V max) and the apparent Michaelis–Menten constant (K m) were determined by fitting the data to this equation using GraphPad Prism version 5.0 (GraphPad software, San Diego California USA).
(§6) The incubation mixtures contained (final concentrations) 3 mM NADPH and 1 mg/ml microsomal protein in 0.2 M Tris-HCl (pH 7.4). […] Incubations were performed for 10 min at substrate concentrations ranging from 25 to 1000 μM, after which the reaction was terminated by adding 25 μl ice-cold acetonitrile. […] Blank incubations were performed in the absence of the cofactor NADPH. All incubations were performed in triplicate.
The flow rate was 0.6 ml/min and the gradient started with 100 % ultrapure water.

[1] = system: Caucasian liver microsomes; assay: Microsomal conversion of estragole by Caucasian liver microsomes (NADPH); type: in vitro ADME, human
Method: as §3
as §4, with “information. […] 3′-Hydroxyanethole was quantified by comparison of the peak areas of the metabolite in the chromatograms obtained at a wavelength of 206 nm to the calibration curve of the synthesized reference compound (Agharahimi and LeBel [1995]; Drinkwater et al. [1976]; Iyer et al. [2003]; Luo et al. [1992]).” for “information.”
as §5, §6
The flow rate was 0.6 ml/min and the gradient started with 100 % ultrapure water. After 1 min, the amount of acetonitrile was increased to 10 % and kept at that level for 1 min, after which the percentage of acetonitrile was increased to 35 % in 2.5 min and then increased to 100 % over 0.5 minute and kept at 100 % acetonitrile for another 1 min, and finally back to the starting conditions.

Chinese liver S9 = assay: Sulfation of 1′-hydroxyestragole by Chinese liver S9 (PAPS, GSH trapping); type: in vitro ADME, human
Method: (§7) The formation of 1′-sulfooxyestragole was determined by incubating 0.2 mg/mL pooled mixed gender Chinese or Caucasian liver S9 in the presence of 0.2 mM PAPS as cofactor and 10 mM GSH as trapping agent for the reactive 1′-sulfooxyestragole in 0.1 M potassium phosphate (pH 8.0). The incubations were carried out for 2 h, and the reactions were terminated by adding 25 μL ice-cold acetonitrile. The blank samples were performed without cofactor. All incubations were performed in triplicate. In the supporting materials 2, detailed information can be found (Table S1 can be used to keep track of detailed information).
(§8) Before UPLC analysis, all samples were centrifuged for 5 min at 16, 000 g to precipitate microsomal or cytosolic proteins. Supernatant of each sample was analyzed on UPLC using a BEH C18 (1.7 μm, 2.1 × 50 mm) column with a guard column and a diode array detector (Acquity, Waters). Secondary metabolism of 1′-hydroxyestragole includes glucuronidation, oxidation, and sulfation. The gradient of analysis of the metabolites of 1′-hydroxyestragole can be found in supporting materials 2. Table S1 can be used to track more detailed information.
(§9) Since the UV spectrum of 3′-hydroxyanethole is similar to that of the GSH adduct of 1′-sulfooxyestragole, quantification of 1′-sulfooxyestragole could be achieved by comparing the peak area of the GSH adduct of 1′-sulfooxyestragole to the calibration curve of 3′-hydroxyanethole at a wavelength 260 nm as described for the quantification of 1′-sulfooxysafrole and 1′-sulfooxyelemicin (Martati et al. [2012]; Van den Berg et al. [2012]). The amount of 1′-sulfooxyestragole GSH adduct formed was corrected for the amount detected in the blank samples performed without the respective cofactor PAPS.
as §5
(§10) The formation of 1'-sulfooxyestragole was determined by incubating 0.2 mg/ml pooled mixed gender Chinese or Caucasian liver S9 in the presence of 0.2 mM PAPS as cofactor and 10 mM GSH as trapping agent for the reactive 1'-sulfooxyestragole in 0.1 M potassium phosphate (pH 8.0). The final volume of the incubations was 100 μl with the substrate 1'-hydroxyestragole ranging from 15 to 2000 μM added from 100 times concentrated stock solutions in DMSO. As previously described by Martati et al. (Martati et al. 2011) and Al-Subeihi et al. (Al-Subeihi et al. 2011), the reactions were started by adding substrate after a pre-incubation at 37 °C for 1 min. The incubations were carried out for 2 hours and the reactions were terminated by adding 25 μl ice-cold acetonitrile. […] The blank samples were performed without cofactor. All incubations were performed in triplicate.
(§11) For detection of the GSH conjugate of 1'-sulfooxyestragole, the flow rate was 0.6 ml/min and the mobile phase was made with acetonitrile and ultrapure water with 0.1 % (v/v) TFA. A linear gradient started from 20 to 30 % acetonitrile in 4.5 min, after which the percentage of acetonitrile was increased to 100 % in 0.3 min and kept at 100 % for another 0.2 min and finally set back to the starting condition.

Caucasian liver S9 = assay: Sulfation of 1′-hydroxyestragole by Caucasian liver S9 (PAPS, GSH trapping); type: in vitro ADME, human
Method: as §7, §8, §9, §5, §10, §11

CYP 2A6 [2] = molecular target: T1, CYP 2A6 (Homo sapiens, UniProt P11509); assay: CYP 2A6 mediated 7-hydroxylation of coumarin, liver microsomes; type: in vitro ADME
T1 construct: tissue PrimeTox (Chinese pool); BD Gentest (Caucasian pool); host or cells: pooled mixed-gender human liver microsomes
T1 sequence (P11509 1-494): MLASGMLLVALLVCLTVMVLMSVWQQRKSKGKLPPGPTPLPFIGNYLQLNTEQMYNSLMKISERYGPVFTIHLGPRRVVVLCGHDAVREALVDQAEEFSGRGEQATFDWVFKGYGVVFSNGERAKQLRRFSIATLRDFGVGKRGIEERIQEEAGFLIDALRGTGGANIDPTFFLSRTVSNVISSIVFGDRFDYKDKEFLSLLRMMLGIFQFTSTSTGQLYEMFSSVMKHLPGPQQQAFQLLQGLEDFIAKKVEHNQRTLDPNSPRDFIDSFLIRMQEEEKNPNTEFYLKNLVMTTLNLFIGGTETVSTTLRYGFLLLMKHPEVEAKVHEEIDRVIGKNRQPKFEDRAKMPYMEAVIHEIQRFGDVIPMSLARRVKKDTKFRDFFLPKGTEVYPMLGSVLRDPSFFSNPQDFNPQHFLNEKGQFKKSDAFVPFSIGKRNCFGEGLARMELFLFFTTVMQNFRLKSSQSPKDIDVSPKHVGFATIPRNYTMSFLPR
Method: as §1
The quality of the Chinese and Caucasian liver microsomes was checked by measuring the activity of CYP 1A2 and CYP 2A6 by the method of Yang et al. (Yang et al. 2012). CYP 1A2 and CYP 2A6 are predominant enzymes for formation of 1'-hydroxyestragole (Jeurissen et al. 2007). The activity of CYP 1A2 was measured with the substrate phenacetin, and the activity of CYP 2A6 was checked using the substrate coumarin. […] The samples were centrifuged for 5 min at 16, 000g to precipitate microsomal proteins and analyzed by UPLC.
as §2

CYP 2A6 [3] = molecular target: T1, CYP 2A6; design: method as in Yang et al. 2012; conditions: ref Yang et al. 2012, cited from earlier work
[4] = formation of the metabolite from estragole, Chinese liver microsomes, average ± SEM
[5] = in vitro, liver microsomes, conversion of estragole
[6] = formation of the metabolite from estragole, Caucasian liver microsomes, average ± SEM
[7] = formation from 1′-hydroxyestragole (sulfation), Caucasian liver S9
[8] = formation from 1′-hydroxyestragole (sulfation), Chinese liver S9

Which results are given for `O=c1ccc2ccc(O)cc2o1` [7-hydroxycoumarin]?
Vmax for SULT mediated conversion, both ethnic groups compared (SULT; Chinese and Caucasian liver S9): similar; Km at 10 min (SULT; human, pH 7.4, Chinese liver S9): 1.7 µM

With `C=CC(O)c1ccc(OC)cc1` (centres unmarked) [1′-Hydroxyestragole] as the molecule, how does the “Catalytic efficiency (scaled V max / K m)” value (Chinese liver microsomes; formation from estragole, Chinese, scaled to liver) read?
Its value is 15.0 µL/h/g liver.

And the “Scaled V max” value (Chinese liver microsomes; formation from estragole, Chinese, scaled with microsomal protein yield 35 mg/(g tissue))?
Its value is 0.7 µmol/h/g liver.

What about the K m (Chinese liver microsomes; [4]) of the same molecule?
Its K m is 49 ± 8 µM.

What about the V max (Chinese liver microsomes; [4]) of the same molecule?
The V max was 0.35 ± 0.01 nmol /min/mg microsomal or S9 protein.

What about the “Catalytic efficiency for formation of the metabolite, lower in Chinese than in Caucasian samples” value (Chinese liver microsomes; [5]) of the same molecule?
Its value is 2.4 fold.

And the “V max for formation of the metabolite, lower in Chinese than in Caucasian samples” value (Chinese liver microsomes; [5])?
The value was 3.4 fold.

And the “V max, lower in Chinese than in Caucasian liver incubations” value (Chinese liver microsomes; scaled kinetic constants (Table 3), conversion of estragole)?
The value was 3.5 fold.

What about the “Catalytic efficiency (scaled V max / K m)” value ([1]; formation from estragole, Caucasian, scaled to liver) of the same molecule?
Its value is 40.3 µL/h/g liver.

And the “Scaled V max” value ([1]; formation from estragole, Caucasian, scaled with microsomal protein yield 35 mg/(g tissue))?
The value was 2.5 µmol/h/g liver.

And the “Catalytic efficiency (V max/K m × 1000)” value ([1]; formation of the metabolite from estragole, Caucasian liver microsomes)?
Its value is 19.3 µL/min/mg microsomal or S9 protein.

What about the K m [1, 6] of the same molecule?
The K m was 62 ± 9 µM.

And the V max [1, 6]?
Its V max is 1.19 ± 0.04 nmol /min/mg microsomal or S9 protein.

What about the “Scaled catalytic efficiency for sulfation, lower for Chinese than Caucasian samples” value (Chinese liver S9; scaled to liver, sulfation of 1′-hydroxyestragole to 1′-sulfooxyestragole) of the same molecule?
The value was 4.5 fold.

For `C=CC(OS(=O)(=O)O)c1ccc(OC)cc1` (centres unmarked) [1′-Sulfooxyestragole], which “Catalytic efficiency (V max/K m × 1000)” value (Caucasian liver S9; [7]) is on record?
Its value is 0.01 µL/min/mg microsomal or S9 protein.

And the K m (Caucasian liver S9; [7])?
Its K m is 423 ± 159 µM.

What about the V max (Caucasian liver S9; [7]) of the same molecule?
Its V max is 0.004 ± 0.0005 nmol /min/mg microsomal or S9 protein.

And the “Scaled V max” value (Caucasian liver S9; sulfation of 1′-hydroxyestragole, Caucasian, S9 protein yield 143 mg/(g tissue))?
Its value is 0.03 µmol/h/g liver.

And the “Catalytic efficiency (scaled V max / K m)” value (Caucasian liver S9; sulfation of 1′-hydroxyestragole, Caucasian, scaled to liver)?
The value was 0.08 µL/h/g liver.

What about the “Catalytic efficiency (V max/K m × 1000)” value (Chinese liver S9; [8]) of the same molecule?
Its value is 0.0021 µL/min/mg microsomal or S9 protein.

And the K m (Chinese liver S9; [8])?
The K m was 694 ± 321 µM.

What about the V max (Chinese liver S9; [8]) of the same molecule?
The V max was 0.0014 ± 0.0002 nmol /min/mg microsomal or S9 protein.

And the “Catalytic efficiency for formation of 1′-sulfooxyestragole, lower in Chinese than in Caucasian samples” value (Chinese liver S9; in vitro, sulfation of 1′-hydroxyestragole, liver S9)?
The value was “fivefold”.

And the “Scaled V max” value (Chinese liver S9; sulfation of 1′-hydroxyestragole, Chinese, S9 protein yield 143 mg/(g tissue))?
The value was 0.01 µmol/h/g liver.

And the “Catalytic efficiency (scaled V max / K m)” value (Chinese liver S9; sulfation of 1′-hydroxyestragole, Chinese, scaled to liver)?
The value was 0.02 µL/h/g liver.

Which “Catalytic efficiency of CYP 2A6 mediated conversion, lower in Chinese than Caucasian liver microsomes” value (CYP 2A6 [2]) does the source give for `O=c1ccc2ccccc2o1` [coumarin] here?
The value was 1.6 fold.

What about the “Catalytic efficiency for CYP 2A6” value (CYP 2A6 [3]; Chinese liver microsomes, literature range) of the same molecule?
Its value is 150-1776 µl/min/(mg microsomal protein).

What about the “CYP 2A6 catalyzed activity, Chinese versus Caucasian liver microsomes” value (CYP 2A6 [3]) of the same molecule?
Its value is “no difference”.
